From PubChem BioAssay AID1549 (Sanford-Burnham Center for Chemical Genomics, 2009)
Activity calls are given as the source filed them. No rule for the calls is given here.

Target: Influenza A virus M2 proton channel (A/TW/4845/1999 H1N1)
Test: M2 proton channel binding, NMR based, influenza A virus H1N1 strain (AID 1549)
Conditions: NMR binding screen, M2 protein

Compound | Kd
Cc1nc(N)sc1C(=O)N/N=C/c1ccncc1 | > 4 mM (inactive)
CC(C)c1c(O)ccc2c1CCC1C(C)(C)CCC[C@]21C (stereo partly specified) | > 4 mM (inactive)
O=C(Nc1nccs1)c1ccc(=O)[nH]n1 | > 4 mM (inactive)
COc1ccc(NC(=O)CCCC(=O)O)c(OC)c1 | > 4 mM (inactive)
CC(=O)Nc1cccc(N(C)S(C)(=O)=O)c1 | > 4 mM (inactive)
Nn1cnn2c(SCc3ccccc3)nnc12 | > 4 mM (inactive)
C#CCCCCCCCCCCCc1ccco1 | > 4 mM (inactive)
Fc1ccc(F)c(CN2CCN(c3ncccn3)CC2)c1 | > 4 mM (inactive)
O=C1CCCN1c1ccc(S(=O)O)cc1 | > 4 mM (inactive)
CC(CCC(=O)O)[C@H]1CCC2C3CC[C@@H]4C[C@H](O)CC[C@]4(C)C3CC[C@@]21C (stereo partly specified) | > 4 mM (inactive)
Nc1nc(-c2ccc(O)cc2)cs1 | > 4 mM (inactive)
O=C(Cc1cccs1)Nc1ccon1 | > 4 mM (inactive)
COc1ccc2ccc(=O)oc2c1CC=C(C)C | > 4 mM (inactive)
CC(C)(CO)NC(=O)c1ccccc1F | > 4 mM (inactive)
Cc1nn2c(nc1=O)SCC(c1ccccc1)=N2 | > 4 mM (inactive)
c1cncc(Nc2nc(-c3ccncc3)cs2)c1 | > 4 mM (inactive)
COc1ccc(CN2CCC(O)CC2)c(O)c1 | > 4 mM (inactive)
COc1ccc(-c2cc(=O)c3cc(OC)ccc3o2)cc1 | > 4 mM (inactive)
COC(=O)c1sccc1S(=O)(=O)N1CCCC1 | > 4 mM (inactive)
CCn1nnnc1Oc1ccc(Cl)cc1 | > 4 mM (inactive)
Cc1cc(O)c(NC(=O)c2ccco2)cc1C | > 4 mM (inactive)

Compound | Kd
O=C(O)C1CSC(c2cc3ccccc3nc2Cl)N1 (stereo unspecified) | > 4 mM (inactive)
CC1(C)C(=O)[C@@H]2O[C@@H]2[C@@]2(C)C1C[C@@H](O)[C@]1(C)C2CC[C@@]2(C)[C@H](c3ccoc3)OC(=O)C3OC321 (stereo partly specified) | > 4 mM (inactive)
OCc1ccc2ncccc2c1 | > 4 mM (inactive)
COc1cc(S(=O)(=O)Nc2cccnc2)ccc1F | > 4 mM (inactive)
O=C(CSc1ccccc1)N1CCC2(CC1)OCCO2 | > 4 mM (inactive)
CS(=O)(=O)Nc1cc2c3c(c1)CCN3C(=O)CC2 | > 4 mM (inactive)
Oc1ccccc1-c1cc(C(F)(F)F)[nH]n1 | > 4 mM (inactive)
CC(=O)c1csc(-c2cc(C)on2)n1 | > 4 mM (inactive)
c1ccc2nc3c(nc2c1)CCc1nonc1-3 | > 4 mM (inactive)
Cn1c(C(=O)O)ccc1S(N)(=O)=O | > 4 mM (inactive)
Cc1nn(CC(=O)Nc2ccccn2)c(=O)c2ccccc12 | > 4 mM (inactive)
CC(=O)N(c1ccccc1)C1C=CS(=O)(=O)C1 (stereo unspecified) | > 4 mM (inactive)
CSc1cc(C)[nH]c(=O)n1 | > 4 mM (inactive)
Cc1ccccc1OCC(=O)O | > 4 mM (inactive)
O=C(Cc1ccc(F)cc1)Nc1ncccn1 | > 4 mM (inactive)
CS(=O)(=O)Nc1ccc(C(=O)N2CCCCC2)cc1 | > 4 mM (inactive)
O=C1C2C3CCC(O3)C2C(=O)N1c1cccc(F)c1 (stereo unspecified) | > 4 mM (inactive)
OCc1ccc(Oc2ccccc2)nc1 | > 4 mM (inactive)
CN(C)C(=O)CSc1nc(N)cc(=O)[nH]1 | > 4 mM (inactive)
COC(=O)C1CSCC1=O (stereo unspecified) | > 4 mM (inactive)
N=Nc1c(O)[nH]c2ccccc12 | > 4 mM (inactive)

Compound | Kd
C=C[C@H]1CN2CC[C@H]1C[C@H]2[C@H](O)c1ccnc2ccccc12 | > 4 mM (inactive)
COc1ccc(NS(=O)(=O)c2ccc(N)cc2)nn1 | > 4 mM (inactive)
CC(=O)Nc1ccc(S(=O)(=O)N(C)C)cc1 | > 4 mM (inactive)
CCOC(=O)CN1C(=O)c2ccccc2C1=O | > 4 mM (inactive)
Oc1ccc(C2SCCS2)cc1 | > 4 mM (inactive)
Oc1ccc2c(c1)OCC1(O)Cc3cc(O)c(O)cc3C21 (stereo unspecified) | > 4 mM (inactive)
COc1ccc(NC(=O)c2ccc[n+]([O-])c2)cc1 | > 4 mM (inactive)
CC12CN3CC(C)(CN(C1)C3c1cccs1)C2O (stereo unspecified) | > 4 mM (inactive)
CCOC(=O)c1ccc(F)cc1F | > 4 mM (inactive)
Cc1ccc(N2C(=O)CC(Sc3ncn[nH]3)C2=O)cc1 (stereo unspecified) | > 4 mM (inactive)
CC(=O)O[C@H]1CCC2(C)C3=C(CCC2C1(C)C)[C@]1(C)CCC(C(C)CCC=C(C)C)[C@@]1(C)CC3 (stereo partly specified) | > 4 mM (inactive)
CC1=C(C(N)=O)C(c2ccccc2)NC(=O)N1 (stereo unspecified) | > 4 mM (inactive)
O=C1C(=O)N(CNc2ncccn2)c2ccccc21 | > 4 mM (inactive)
CCc1ccccc1OCc1nnc(N)s1 | > 4 mM (inactive)
c1nnc2c3c4c(sc3ncn12)CCCC4 | > 4 mM (inactive)
Cn1c(=O)n(CC(=O)N2CCOCC2)c2ccccc21 | > 4 mM (inactive)
O=C(O)c1ccc(-n2cccc2)cc1 | > 4 mM (inactive)
Cc1sc2nc3n(c(=O)c2c1C)CCCS3 | > 4 mM (inactive)
Cc1cc(C)n(S(=O)(=O)c2cc(C)c(C)cc2C)n1 | > 4 mM (inactive)
